“Also recorded” adds a separate entry of the source.
What was measured:
F5.C4 tumors = assay: Effect on established F5.C4 tumors in mice; format: in vivo
Protocol: Error bars indicate standard deviation. Also shown are 5 representative growth curves from 15 animals in which tet was withheld (day 0) upon tumor formation (no symbols).
Next, the effect of survivin Thr^34→Ala on established tumors was assessed. Fifteen mice were injected with F5.C4 cells and tet was provided to permit tumor formation. Once tumors became apparent (20-50 mm^3), tet was withheld from the drinking water and tumors were monitored for 5 weeks. […] Rather, a spectrum of growth curves with some tumors failing to grow at all after tet was withdrawn was observed (FIG. 10A). […] In the two small F5.C4 tumors that formed in the absence of tet (Table I), a similar pattern of apoptotic cell death was seen (not shown).

HeLa cells = assay: Mitotic spindle immunofluorescence (tubulin) in transfected HeLa cells; format: cell-based; settings: tubulin labeling
Protocol: HeLa cells transfected with wild type survivin (WT) or survivin(T34A) (T34A), were fixed in microtubule-stabilizing buffer (Li et al., 1998), and labeled with mAb 20C6 to […] -tubulin followed by FITC-conjugated goat anti-mouse IgG. Images were analyzed by confocal microscopy as described in FIG. 2C.
Transfection experiments. For transient transfection, HeLa cells in C-6 tissue culture plates (Costar, Cambridge, Mass.) at ˜60-70% confluency, were incubated in 1 ml of serum-free OptiMEM medium (Life Technologies, Gaithersburg, Md.) for 20 min, and transfected with 2.5 μg of the various plasmid cDNAs plus 9 μl Lipofectamine (Life Technologies). After a 5 h incubation at 37° C., the mixture was aspirated and substituted with complete growth medium for 48-72 h. To generate stable YUSAC-2 transfectants, a survivin(T34A) cDNA was inserted into the HindIII-SpeI sites of the pTet-splice vector (Dr. D. Schatz, Yale University School of Medicine), downstream of the regulatory sequences of the Tet-resistance operon (TetO). YUSAC-2 cells were transfected with 0.8 μg pTet-T34A, 0.8 μg of the transactivation/selection plasmid ptTA-Neo and 5 μl Lipofectamine in 1 ml of OptiMem. […] Gated GFP-expressing cells were analyzed for DNA content by flow cytometry on a FACSort (Becton Dickinson, San Jose, Calif.) using a Cell Quest software. […]

Substance: survivin(T34A): dominant-negative, non-phosphorylatable survivin mutant with Thr34→Ala substitution, expressed from transfected cDNA (also HA- or GFP-tagged)
- growth of established tumors after tet withdrawal (F5.C4 tumors; F5.C4 tumors 20-50 mm^3 at withdrawal, monitored for 5 weeks): None of the tumors grew at a rate comparable to F5.C4 tumors in animals maintained on tet
- histologic analysis of tumors after transgene induction (F5.C4 tumors; F5.C4 tumors, tet withdrawn, listed as survivin Thr^34→Ala): massive areas of necrosis and prominent cellular apoptosis by TUNEL; also recorded: lack of normal mitotic figures and the presence of aberrant mitoses
- mitotic spindle morphology (HeLa cells): profound dysregulation of mitotic transitions
